Assay results published in patent US9073880B2, “2-(2-phenylethenyl) 1,3-benzodiazepine derivatives useful for the treatment of cancer” (Yissum Research Development Company of the Hebrew …, priority 2010, dated 2015).

Columns and labels:
Type in all cases: cell-based
[1] = system: human prostate carcinoma PC3MM2 cells; assay: Cell proliferation, PC3MM2 (Example 4); details: PC3MM2, prostate cancer, compound in 2-hydroxypropyl-β-cyclodextrin
Description: (§1) Human ovary cancer A2780 cells lines were seeded at a density of 5000 cells/well, human melanoma A375 cells were plated at a density of 2,500 cells/well, human colon carcinoma HCT15 cells were plated at a density of 3,000 cells/well, human prostate carcinoma PC3 cells were plated at a density of 1,500 cells/well, human breast carcinoma MCF7 cells were plated at a density of 5,000 cells/well, human breast carcinoma MDA MB 468 cells were plated at a density of 6,000 cells/well, human myeloma U266, RPMI8226 and CAG cells were plated at a density of 10,000 cells/well. All cells were plated in 96-well plates in 90 μl growth medium containing 10% FCS, 100 units/ml penicillin and 100 μg/ml streptomycin. Compound 3 was added a day later in […] of 1% DMSO in DDW to obtain final concentrations of 0, 0.1, 0.3, 1, 3, and 10 μM. The final concentration of DMSO (0.1% DMSO) was kept constant in all samples. Following exposure of the cells to compound 3 for 72 hours at 37° C., adhered cells were fixed in 0.5% gluteraldehyde in medium for 10 min, washed three times with DDW, once with 0.1M sodium borate buffer pH 8.5 and stained with 1% methylene blue dissolved in 0.1M borate buffer solution for 60 min. Excess dye was washed out and cell-bound dye was eluted with 200 μl/well of 0.1M HCl. The optical density values were read at 630 nm in ELISA plate reader. Non-adhered cells were exposed to WST-1 reagent for 5 hours following 72 hours treatment with the inhibitors, and optical density values were read at 630 nm in ELISA plate reader. The data was analyzed in Microsoft Excel, using the vehicle control as 100% proliferation. The assays were performed in triplicates. The values of IC50 were derived from the dose-dependent growth curves obtained.
(§2) Cell proliferation assay was performed as described in Example 2. […]

[2] = system: human prostate carcinoma DU145 cells; assay: Cell proliferation, DU145 (Example 4); details: DU-145, DU145, prostate cancer, compound in 2-hydroxypropyl-β-cyclodextrin
Description: as §1, §2

[3] = system: human breast cancer MDA-MB-468 cells; assay: Cell proliferation, MDA-MB-468 (Example 4); details: MDA-MB-468, breast cancer, compound in 2-hydroxypropyl-β-cyclodextrin
Description: as §1, §2

[4] = system: human multiple myeloma MM1S cells; assay: Cell proliferation, MM1S (Example 4); details: MM1.S, compound in 2-hydroxypropyl-β-cyclodextrin
Description: as §1
(§3) Cell proliferation assay was performed as described in Example 2. The following cell line were plated in 96-well plates in 90 μl growth medium containing 10% FCS, 100 units/ml penicillin and 100 μg/ml streptomycin: human ovary cancer A2780 cells (4500 cells/well), human melanoma A375 (1500 cells/well) and YUMAC (2500 cells/well) cells, human colon carcinoma HCT15 (3000 cells/well) and HCT116 (2000 cells/well) cells, human prostate carcinoma PC3 (3000 cells/well), PC3MM2 (3500 cells/well) and DU145 (300 cells/well) cells, human hepatocarcinoma HepG2 (3000 cells/well), human Ewing sarcoma SK-ES-1 (4,500 cells/well), human glioblastoma U138MG (2,000 cells/well), human breast cancer T47D (4000 cells/well) and MDA-MB-468 (6000 cells/well) cells, human small cell lung carcinoma NCI-H1975 (5000 cells/well) cells, human osteosarcoma Saos-2 (5000 cells/well) cells, human pancreatic cancer ASPC (2500 cells/well) cells, human bladder carcinoma T24P (1000 cells/well) cells, human gastric cancer NCI-N87 (5000 cells/well) cells, human lymphoma KARPAS (5,000 cells/well) cells, human leukemia K562 (5,000 cells/well) cells and human multiple myeloma MM1S (10,000 cells/well), U266 (10,000 cells/well) and CAG (5,000 cells/well). Compounds 2-5 and 7-8 were added a day later in 10 μl of 0.7% 2-hydroxypropyl-β-cyclodextrin to obtain final concentrations of 0, 0.1, 0.3, 1, 3 and 10 μM.
Compounds 2-5 and 7-8 of the present invention were tested for their inhibitory potential in cell proliferation assay. Human ovary cancer A2780 cells, human melanoma A375 and YUMAC cells, human colon carcinoma HCT15 and HCT116 cells, human prostate carcinoma PC3, PC3MM2 and DU145 cells, human hepatocarcinoma HepG2 cells, human Ewing sarcoma SK-ES-1 cells, human glioblastoma U138MG cells, human breast cancer T47D and MDA-MB-468 cells, human small cell lung carcinoma NCI-H1975 cells, human osteosarcoma Saos-2 cells, human pancreatic cancer ASPC cells, human bladder cancer T24P cells, human gastric cancer cells, human lymphoma KARPAS cells, human leukemia K562 cells, and human multiple myeloma MM1S, CAG and U266 cells, were exposed to increasing concentrations of compounds 2-5 and 7-8. […]

[5] = system: human osteosarcoma Saos-2 cells; assay: Cell proliferation, Saos-2 (Example 4); details: Saos-2, osteosarcoma, compound in 2-hydroxypropyl-β-cyclodextrin
Description: as §1, §2

[6] = system: human leukemia K562 cells; assay: Cell proliferation, K562 (Example 4); details: compound in 2-hydroxypropyl-β-cyclodextrin
Description: as §1, §3
Compounds 2-5 and 7-8 of the present invention were tested for their inhibitory potential in cell proliferation assay. […]

[7] = system: human lymphoma KARPAS cells; assay: Cell proliferation, KARPAS (Example 4); details: compound in 2-hydroxypropyl-β-cyclodextrin
Description: as §1, §2

[8] = system: human multiple myeloma CAG cells; assay: Cell proliferation, CAG (Example 4); details: compound in 2-hydroxypropyl-β-cyclodextrin
Description: as §1, §2

[9] = system: human bladder carcinoma T24P cells; assay: Cell proliferation, T24P (Example 4); details: compound in 2-hydroxypropyl-β-cyclodextrin
Description: as §1, §2

Row | Compound | IC50 [1] [nM] | IC50 [2] [nM] | IC50 [3] [µM] | IC50 [4] [nM] | IC50 [5] [nM] | IC50 [6] [nM] | IC50 [7] [nM] | IC50 [8] [nM] | IC50 [9] [µM]
1 | O=c1c(O)cc2cnc(/C=C/c3cc(O)c(O)c(Br)c3)sc-2c1O [Compound 3] | 2300 | 2300 | 4.7 | 500 | 3100 | 500 | 500 | 900 | 6
2 | O=c1c(O)cc2cnc(/C=C/c3ccc(O)c(O)c3Br)sc-2c1O [Compound 5] | 1800 | 2700 | 2.9 | 600 | 2800 | 500 | 900 | 700 | 6.5
